Assay [1] has as its target T1, prolyl endopeptidase (Bos taurus, UniProt Q9XTA2).
T1 construct: prolyl endopeptidase which was purified from bovine brain; from tissue; host or cells: bovine brain
T1 sequence (Q9XTA2 1-710): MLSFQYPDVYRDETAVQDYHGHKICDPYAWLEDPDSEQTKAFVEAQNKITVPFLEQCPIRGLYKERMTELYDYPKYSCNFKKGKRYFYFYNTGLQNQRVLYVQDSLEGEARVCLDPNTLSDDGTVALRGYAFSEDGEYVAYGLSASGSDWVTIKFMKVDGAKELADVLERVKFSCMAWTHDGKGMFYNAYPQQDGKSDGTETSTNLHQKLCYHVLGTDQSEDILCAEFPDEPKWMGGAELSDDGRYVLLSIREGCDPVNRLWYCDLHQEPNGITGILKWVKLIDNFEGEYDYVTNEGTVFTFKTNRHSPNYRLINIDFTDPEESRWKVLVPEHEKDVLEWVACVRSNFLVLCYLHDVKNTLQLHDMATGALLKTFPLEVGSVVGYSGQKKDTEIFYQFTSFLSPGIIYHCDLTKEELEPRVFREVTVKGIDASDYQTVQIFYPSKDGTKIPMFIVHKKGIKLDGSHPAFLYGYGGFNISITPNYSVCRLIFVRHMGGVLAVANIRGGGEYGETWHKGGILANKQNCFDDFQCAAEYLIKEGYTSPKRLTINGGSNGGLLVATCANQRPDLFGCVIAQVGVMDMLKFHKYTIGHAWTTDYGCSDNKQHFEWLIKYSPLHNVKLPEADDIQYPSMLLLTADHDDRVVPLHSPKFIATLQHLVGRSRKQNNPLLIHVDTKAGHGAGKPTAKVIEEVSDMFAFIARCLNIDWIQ
Kind of assay: Prolyl endopeptidase inhibitory activity in vitro. The class given is biochemical, bovine. Here is the method:
Prolyl Endopeptidase Inhibitory Activity In Vitro
Inhibitory activity of prolyl endopeptidase in vitro was measured by the following test system.
A mixed solution of 20 mM tris-HCl buffer (pH 7.5; 935 μl; containing 10 mM EDTA and 10 mM mercaptoethanol), a solution of a compound of the present invention In DMSO (10 μl) and a solution of prolyl endopeptidase which was purified from bovine brain (0.13 unit; prepared by the method described in J. Biochem., 94, 1179 (1983)) in tris-HCl buffer (15 μl) was preincubated for 15 mins at 37° C.
To the solution, 5 mM of N-benzyloxycarbonyl-glycyl-prolyl-p-nitroanilide (40 μl) in a mixture of 40% dioxane-60% water was added. The solution was incubated for 1 min at the same temperature.
Optical absorption (a1) at 405 nm of the solution, and optical absorption (a2) at 405 nm of the solution after more 30 mins' incubation at 37° C. were measured.
Optical absorptions (b1 and b2) of the solutions using DMSO instead of the solution of the compound of the present invention were also measured.
Inhibitory ratio was calculated by the following expression and IC50 (required concentration for 50% inhibition) was obtained (See Protein, Nucleic acid and Enzyme 25(6), 513, 1980.). [formula]

The subject of assay [2] is prolyl endopeptidase. The following applies: literature; cited from earlier work.
Setting [3] is: read-out: Concentration for 50% inhibition IC50, Table II, formula (Ib), purified from bovine brain, pH 7.5, 37° C.

Read-outs that look alike come from different tables or passages of the source. Peptide text beside a SMILES is read from it. * marks the point of attachment. Cbz = O=C(OCc1ccccc1)*; CH2Cl = ClC*

Turning to `CC(C)C(CCCCCCCCc1ccccc1)C(=O)N1CCC[C@H]1C=O` (stereo partly drawn) [1(e), N-(2-isopropyl-10-phenyldecanoyl)-L-prolinal], the IC50 in assay [1] was found to be 120 nM.
On to “N-[9-(4-phenylbutyl)cyclo-hexane carbonyl]-L-prolinal [2(a)]”, for which the IC50 in assay [1] (Table I, formula (Ia), purified from bovine brain, pH 7.5, 37° C., read-out: Concentration for 50% inhibition IC50) turned out to be 430 nM.
Compound `CC(C)C(CCCCc1ccccc1)C(=O)N1CCC[C@H]1C=O` (stereo partly drawn) [Example 1, N-(2-Isopropyl-6-Phenylhexanoyl)-L-Prolinal] registered an IC50 in assay [1] of 280 nM.
For the compound `O=C[C@@H]1CCCN1C(=O)C(CCCCCc1ccccc1)c1ccccc1` (some centres unmarked), the IC50 in assay [1] (setting [3]) came to 610 nM.
For the compound `CC(C)C(CCc1ccccc1)C(=O)N1CCC[C@H]1C=O` (stereo partly drawn) [N-(2-isopropyl-4-phenyl-butyryl)-L-prolinal, reference compound], in assay [1], the IC50 was > 5000 nM.
For `O=C(NCC(=O)N1CCC[C@H]1C(=O)CCl)OCc1ccccc1` [N-benzyloxycarbonyl-glycyl-L-prolyl-chloromethane] (Cbz-Gly-Pro-CH2Cl), in assay [2], the “inhibition of prolyl endopeptidase (in words)” value is “strongly inhibit prolyl endopeptidase”.
For `CC(C)C(CCCc1ccccc1)C(=O)N1CCC[C@H]1C=O` (stereo partly drawn) [1(a), N-(2-isopropyl-5-phenyl-pentanoyl)-L-prolinal], the IC50 in assay [1] was determined as 370 nM.
Same read-out and setting: the same measure for `CC(C)C(CCCCCc1ccccc1)C(=O)N1CCC[C@H]1C=O` (stereo partly drawn) [1(b), N-(2-isopropyl-7-phenyl-heptanoyl)-L-prolinal]: 80 nM.
Consider `CC(C)C(CCCCCCc1ccccc1)C(=O)N1CCC[C@H]1C=O` (stereo partly drawn) [1(c), N-(2-isopropyl-8-phenyl-octanoyl)-L-prolinal], for which the IC50 in assay [1] was 190 nM.
In turn, `CC(C)C(CCCCCCCc1ccccc1)C(=O)N1CCC[C@H]1C=O` (stereo partly drawn) [1(d), N-(2-isopropyl-9-phenyl-nonanoyl)-L-prolinal] displayed an IC50 in assay [1] of 230 nM.
`O=C[C@@H]1CCCN1C(=O)C(CCCCc1ccccc1)C1CCCCC1` (some centres unmarked): the IC50 in assay [1] (setting [3]) came to 690 nM.
`COc1ccc(CCCC(=O)N2CCC[C@H]2C=O)cc1` [N-[4-(4-methoxyphenyl)bu-tyryl]-L-prolinal, reference compound] registered an IC50 in assay [1] of 21000 nM.
On the same count and under the same terms, the value for `COc1ccc(CCCCCC(C(=O)N2CCC[C@H]2C=O)C(C)C)cc1` (some centres unmarked) was 170 nM.
The same measure, in the same setting: the same measure for `O=C[C@@H]1CCCN1C(=O)[C@@H]1CCC[C@H]1CCCCc1ccccc1` (relative stereo) [Example 2, N-[DL-Trans-2-(4-Phenylbutyl)Cyclopentanecarbonyl] -L-prolinal]: 130 nM.

Values taken from US5262431A, “Prolinal derivatives and pharmaceutical compositions thereof” (Ono Pharmaceutical Co., Ltd., priority 1986, dated 1993).
